For the assay, the target named is EGFR (UniProt P00533).

SMILES strings stand for the structures. Converted amounts (≈) assume the structure as drawn. “And” between values parts separate entries of the source, which are not always exact repeats. Equal values may be shown once. Bounds are passed on as bounds.

Consider 92 compounds from the Kinase Knowledgebase extract (Sharma et al. 2016).

As usually defined, the IC50 is the point on the concentration scale where inhibition reaches its midpoint.

Sequence of EGFR (P00533 whole entry, looked up): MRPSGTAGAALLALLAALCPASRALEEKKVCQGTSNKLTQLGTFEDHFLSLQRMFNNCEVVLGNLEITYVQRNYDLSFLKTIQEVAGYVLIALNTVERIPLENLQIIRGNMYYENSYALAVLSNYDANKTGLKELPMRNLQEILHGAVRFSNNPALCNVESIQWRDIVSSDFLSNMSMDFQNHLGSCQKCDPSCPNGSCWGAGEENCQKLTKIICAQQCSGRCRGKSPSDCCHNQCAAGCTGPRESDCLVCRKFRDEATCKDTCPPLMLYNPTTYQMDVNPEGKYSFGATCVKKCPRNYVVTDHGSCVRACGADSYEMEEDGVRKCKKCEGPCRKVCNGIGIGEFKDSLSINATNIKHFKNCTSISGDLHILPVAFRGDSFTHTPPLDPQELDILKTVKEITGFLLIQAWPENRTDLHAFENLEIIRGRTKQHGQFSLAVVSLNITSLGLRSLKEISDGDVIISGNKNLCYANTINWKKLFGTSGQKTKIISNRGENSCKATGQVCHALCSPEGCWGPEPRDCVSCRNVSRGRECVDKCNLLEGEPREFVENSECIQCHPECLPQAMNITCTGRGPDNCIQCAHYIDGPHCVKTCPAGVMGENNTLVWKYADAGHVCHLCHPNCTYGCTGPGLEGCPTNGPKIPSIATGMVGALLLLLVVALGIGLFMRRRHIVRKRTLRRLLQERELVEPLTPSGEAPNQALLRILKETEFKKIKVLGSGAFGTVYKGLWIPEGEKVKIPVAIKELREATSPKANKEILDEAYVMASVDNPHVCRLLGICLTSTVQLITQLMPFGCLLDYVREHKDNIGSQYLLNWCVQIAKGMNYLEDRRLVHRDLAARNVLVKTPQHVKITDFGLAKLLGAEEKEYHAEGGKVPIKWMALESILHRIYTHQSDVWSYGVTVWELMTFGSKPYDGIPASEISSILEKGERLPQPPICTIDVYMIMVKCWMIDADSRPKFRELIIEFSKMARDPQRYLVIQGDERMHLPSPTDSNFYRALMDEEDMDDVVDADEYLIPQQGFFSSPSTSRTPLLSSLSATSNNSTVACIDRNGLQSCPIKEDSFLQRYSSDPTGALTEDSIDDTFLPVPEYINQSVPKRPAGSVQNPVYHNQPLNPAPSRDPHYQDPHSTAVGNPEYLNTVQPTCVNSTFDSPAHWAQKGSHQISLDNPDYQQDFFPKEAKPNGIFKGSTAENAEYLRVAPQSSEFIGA

Compound `CC(C)(C)OC(=O)Nc1ccc(Nc2ncnc(-c3ccccc3)n2)cc1` showed an IC50 of more than 4.5 µg/mL.
The compound `COc1cc(Nc2ncnc(Nc3[nH]ncc3-c3cccc(Cl)c3)n2)cc(OC)c1OC` had an IC50 of more than 4.5 µg/mL.
The result for `NC(=O)c1cccc(Nc2ncnc(-n3c(N)nc4ccccc43)n2)c1` reads more than 4.5 µg/mL.
In turn, `O=c1[nH]c2ccccc2n1-c1ncnc(Nc2ccc3ncccc3c2)n1` yielded an IC50 of 3.5 to 4.5 µg/mL (≈ 9.85 to 12.7 µM).
For `COCCOc1ccc(Nc2ncnc(-n3c(N)nc4ccccc43)n2)cc1OC`, the IC50 lay in the range of 3.5 to 4.5 µg/mL (≈ 8.59 to 11 µM).
The result for `CCN(CC)CCCNc1ccc(-c2ncnc(Nc3cc(OC)c(OC)c(OC)c3)n2)cn1` reads more than 4.5 µg/mL.
For `Nc1ncnc(Nc2ccc3c(c2)OCO3)n1`, the concentration for half-maximal inhibition (IC50) lay in the range of 3.5 to 4.5 µg/mL (≈ 15.1 to 19.5 µM).
The result for `COc1cc(Nc2ncnc(Nc3cccc(F)c3)n2)cc(OC)c1OC` reads less than 0.4 µg/mL; that for `COC(=O)c1cccc(Nc2ncnc(-n3c(NCc4ccc(OC)cc4)nc4ccccc43)n2)c1`, more than 4.5 µg/mL; that for `COc1cc(Nc2ncnc(-n3c(NCc4ccc(Br)cc4)nc4ccccc43)n2)cc(OC)c1OC`, more than 4.5 µg/mL.
Take `COc1cc(Nc2ncnc(Nc3cccc4cccnc34)n2)cc(OC)c1OC`: the IC50 was more than 4.5 µg/mL.
Compound `COc1cccc(Nc2ncnc(-c3cccs3)n2)n1` displayed an IC50 of more than 4.5 µg/mL.
In turn, `COCCOc1ccc(Nc2ncnc(-n3c(N)nc4ccccc43)n2)cc1OCCOC` had an IC50 of more than 4.5 µg/mL.
With `COc1cc(Nc2ncnc(Nc3nccs3)n2)cc(OC)c1OC`, the IC50 is more than 4.5 µg/mL.
The result for `COc1cc(Nc2ncnc(-n3c(N)nc4cc(Cl)ccc43)n2)cc(OC)c1OC.COc1cc(Nc2ncnc(-n3c(N)nc4ccc(Cl)cc43)n2)cc(OC)c1OC` reads more than 4.5 µg/mL.
Consider `CN1CCN(Cc2cccc(Nc3ncnc(Nc4ccc5c(cnn5Cc5ccccc5)c4)n3)c2)CC1`, for which the IC50 was more than 4.5 µg/mL.
The compound `COc1cc(Nc2ncnc(Nc3cccc(Oc4ccccc4)c3)n2)cc(OC)c1OC` yielded an IC50 of 0.4 to 2.4 µg/mL (≈ 0.898 to 5.39 µM).
For `Cc1cccc(Nc2ncnc(Nc3cc(-c4ccccc4)n[nH]3)n2)c1` the value was less than 0.4 µg/mL.
`CC(C)Nc1ncccc1-c1ncnc(Nc2cccc(CO)c2)n1` displayed an IC50 of 3.5 to 4.5 µg/mL (≈ 10.4 to 13.4 µM).
Consider `COc1cc(Nc2ncnc(-n3c(NCc4ccccc4)nc4ccccc43)n2)cc(OC)c1OC`, for which the 50% inhibitory concentration (IC50) lay within 2.4 to 3.5 µg/mL (≈ 4.96 to 7.24 µM).
In turn, `COc1cc(Nc2ncnc(Nc3cc(Cl)c(O)c(Cl)c3)n2)cc(OC)c1OC` had an IC50 of less than 0.4 µg/mL.
The result for `COc1cc(Nc2ncnc(-c3cccnc3Nc3ccc(Oc4ccccc4)cc3)n2)cc(OC)c1OC` reads more than 4.5 µg/mL; that for `COc1ccc(CNc2nc3ccccc3n2-c2ncnc(Nc3cc(OC)c(OC)c(OC)c3)n2)cc1`, more than 4.5 µg/mL; that for `COc1ccc(Nc2ncnc(-n3c(N)nc4ccccc43)n2)cc1`, 2.4 to 3.5 µg/mL (≈ 7.2 to 10.5 µM).
`COc1cc(Nc2ncnc(N[C@@H]3CCCc4ccccc43)n2)cc(OC)c1OC` yielded an IC50 of 0.4 to 2.4 µg/mL (≈ 0.982 to 5.89 µM).
`CC(C)Nc1ncccc1-c1ncnc(Nc2cccc(Cn3ccnn3)c2)n1` registered an IC50 of 2.4 to 3.5 µg/mL (≈ 6.19 to 9.03 µM).
For the compound `COc1ccc(Nc2ncccc2-c2ncnc(Nc3cc(OC)c(OC)c(OC)c3)n2)c(C)c1`, the IC50 was more than 4.5 µg/mL.
For the compound `COc1cc(Nc2ncnc(N[C@H](CO)c3ccccc3)n2)cc(OC)c1OC`, the IC50 lay within 0.4 to 2.4 µg/mL (≈ 1.01 to 6.04 µM).
For `COc1cc(Nc2ncnc(Nc3cc(-c4ccc(Cl)c(Cl)c4)n[nH]3)n2)cc(OC)c1OC` the value was 2.4 to 3.5 µg/mL (≈ 4.91 to 7.17 µM); for `Nc1nc2ccccc2n1-c1ncnc(Nc2ccc(Cl)cc2)n1`, 0.4 to 2.4 µg/mL (≈ 1.18 to 7.11 µM).
Take `COC(=O)c1cccc(Nc2nc3ccccc3n2-c2ncnc(Nc3cc(OC)c(OC)c(OC)c3)n2)c1`: the IC50 is more than 4.5 µg/mL.
On to `COc1cc(Nc2ncnc(-c3ccccc3)n2)cc(OC)c1OC`, for which the IC50 was more than 4.5 µg/mL.
In turn, `CCOC(=O)Cc1ccc(Nc2ncnc(Nc3cc(OC)c(OC)c(OC)c3)n2)cc1` showed an IC50 of less than 0.4 µg/mL.
For `c1ccc(-c2ncnc(Nc3ccc(OCCCN4CCOCC4)cc3)n2)cc1` the value was more than 4.5 µg/mL; for `COc1cc(Nc2ncnc(-c3cccnc3Nc3ccc(C(F)(F)F)cc3)n2)cc(OC)c1OC`, more than 4.5 µg/mL.
For `COc1cc(Nc2ncnc(-n3c(NCc4ccc(N(C)C)cc4)nc4ccccc43)n2)cc(OC)c1OC` the value was 2.4 to 3.5 µg/mL (≈ 4.56 to 6.65 µM); for `CCN(CC)CCOc1ccc(Nc2ncnc(Nc3cc(OC)c(OC)c(OC)c3)n2)cc1OC`, 0.4 to 2.4 µg/mL (≈ 0.802 to 4.81 µM); for `COc1ccc2c(c1)nc(NCc1ccccc1)n2-c1ncnc(Nc2cc(OC)c(OC)c(OC)c2)n1.COc1ccc2nc(NCc3ccccc3)n(-c3ncnc(Nc4cc(OC)c(OC)c(OC)c4)n3)c2c1`, 0.4 to 2.4 µg/mL.
Compound `CC(C)(C)c1cc(Nc2ncnc(Nc3cccc(CO)c3)n2)[nH]n1` displayed an IC50 of 0.4 to 2.4 µg/mL (≈ 1.18 to 7.07 µM).
For the compound `COc1cc(Nc2ncnc(-c3cccnc3Nc3ccc(Cl)cc3C)n2)cc(OC)c1OC`, the IC50 was more than 4.5 µg/mL.
For `COc1cc(Nc2ncnc(Nc3cc(-c4ccc(C)cc4)n[nH]3)n2)cc(OC)c1OC` the value was 0.4 to 2.4 µg/mL (≈ 0.923 to 5.54 µM).
For `OCCCNc1ncnc(-c2ccccc2)n1`, the IC50 was more than 4.5 µg/mL.
In turn, `c1csc(-c2ncnc(Nc3ccncc3)n2)c1` yielded an IC50 of more than 4.5 µg/mL.
Regarding `Nc1ncnc(Nc2ccc(F)cc2F)n1`, the IC50 was more than 4.5 µg/mL.
The result for `Fc1cccc(CNc2nc3ccccc3n2-c2ncnc(Nc3cccc(Cn4ccnn4)c3)n2)c1` reads 0.4 to 2.4 µg/mL (≈ 0.812 to 4.87 µM); that for `COc1ccc(CNc2ncnc(Nc3cc(-c4ccco4)n[nH]3)n2)cc1`, more than 4.5 µg/mL; that for `COc1cc(Nc2ncnc(-n3c(N[C@@H](CO)c4ccccc4)nc4ccccc43)n2)cc(OC)c1OC`, 0.4 to 2.4 µg/mL (≈ 0.779 to 4.67 µM).
Consider `COc1cc(Nc2ncnc(Nc3ccncc3)n2)cc(OC)c1OC`, for which the IC50 was more than 4.5 µg/mL.
For the compound `COc1cc(Nc2ncnc(-n3c(NCc4cccnc4)nc4ccccc43)n2)cc(OC)c1OC`, the IC50 was more than 4.5 µg/mL.
`COc1cc(Nc2ncnc(-c3cccnc3NCCC(C)(C)C)n2)cc(OC)c1OC` displayed an IC50 of more than 4.5 µg/mL.
As to `COc1cc(Nc2ncnc(N3CCCCC3)n2)cc(OC)c1OC`, the IC50 was more than 4.5 µg/mL.
`COc1cc(Nc2ncnc(N(CCO)c3ccccc3)n2)cc(OC)c1OC`: the IC50 is less than 0.4 µg/mL.
Regarding `COc1cc(Nc2ncnc(-n3c(NCc4ccc(C)cc4C)nc4ccccc43)n2)cc(OC)c1OC`, the half-maximal inhibitory concentration (IC50) is > 4.5 µg/mL and 2.4 to 3.5 µg/mL.
Compound `COc1cc(Nc2ncnc(Nc3cc(C(C)(C)C)[nH]n3)n2)cc(OC)c1OC` gave an IC50 of 0.4 to 2.4 µg/mL (≈ 1 to 6.01 µM).
`COC(=O)c1ccc(-c2cc(Nc3ncnc(NCc4ccco4)n3)[nH]n2)cc1` returned an IC50 of more than 4.5 µg/mL.
For `NCCCNc1ncnc(-c2ccccc2)n1` the value was more than 4.5 µg/mL; for `CN(c1cccc(Cl)c1)c1ncnc(Nc2ccc3nn(Cc4ccccc4)cc3c2)n1`, less than 0.4 µg/mL.
In turn, `Nc1nc2ccccc2n1-c1ncnc(Nc2ccccn2)n1` gave an IC50 of more than 4.5 µg/mL.
`COc1cc(Nc2ncnc(-n3c(Nc4ccc5cn[nH]c5c4)nc4ccccc43)n2)cc(OC)c1OC` returned an IC50 of more than 4.5 µg/mL.
The compound `Cc1ccc(Nc2ncnc(N)n2)cc1` showed an IC50 of more than 4.5 µg/mL.
For the compound `O=c1[nH]c2ccccc2n1-c1ncnc(Nc2cccc(S(=O)(=O)CCO)c2)n1`, the IC50 is more than 4.5 µg/mL.
`COc1cc(Nc2ncnc(Nc3n[nH]c(Nc4ccc(Cl)cc4)n3)n2)cc(OC)c1OC` yielded an IC50 of 2.4 to 3.5 µg/mL (≈ 5.11 to 7.45 µM).
Regarding `Nc1ncnc(Nc2ccc(C3CCCCC3)cc2)n1`, the IC50 was more than 4.5 µg/mL.
The compound `COc1cc(Nc2ncnc(-n3c(=O)[nH]c4ccccc43)n2)cc(OCCN2CCOCC2)c1OC` showed a half-inhibitory concentration (IC50) of more than 4.5 µg/mL.
The result for `COc1cc(Nc2ncnc(-n3c(=O)sc4ccccc43)n2)cc(OC)c1OC` reads more than 4.5 µg/mL; that for `COc1ccc(Nc2ncnc(NCc3ncc(C(F)(F)F)cc3Cl)n2)cc1OC`, 2.4 to 3.5 µg/mL (≈ 5.44 to 7.94 µM); that for `COc1cc(Nc2ncnc(-n3c(=O)[nH]c4ccccc43)n2)cc(OC)c1OCCN1CCOCC1`, 2.4 to 3.5 µg/mL (≈ 4.86 to 7.09 µM).
`O=c1[nH]c2ccccc2n1-c1ncnc(Nc2ccc(-c3cnco3)cc2)n1` yielded an IC50 of more than 4.5 µg/mL.
For the compound `COC(=O)c1ccc(-c2cc(Nc3ncnc(Nc4cc(F)cc(F)c4)n3)[nH]n2)cc1`, the IC50 is more than 4.5 µg/mL.
The result for `COc1ccc2c(c1)nc(Cl)n2-c1ncnc(Nc2cc(OC)c(OC)c(OC)c2)n1.COc1ccc2nc(Cl)n(-c3ncnc(Nc4cc(OC)c(OC)c(OC)c4)n3)c2c1` reads more than 4.5 µg/mL; that for `COc1cc(Nc2ncnc(-c3cccnc3Nc3cccc4c3CCCC4)n2)cc(OC)c1OC`, more than 4.5 µg/mL.
For the compound `Fc1ccc(CNc2ncnc(Nc3cc(-c4ccco4)n[nH]3)n2)cc1`, the IC50 fell in the range of 3.5 to 4.5 µg/mL (≈ 9.96 to 12.8 µM).
For `c1ccc(Cn2ncc3cc(Nc4ncnc(NCCN5CCCC5)n4)ccc32)cc1` the value was more than 4.5 µg/mL; for `COc1cc(Nc2ncnc(-n3cc(CC(N)=O)c4ccccc43)n2)cc(OC)c1OC`, more than 4.5 µg/mL; for `COc1cc(Nc2ncnc(-n3cnc4ccccc43)n2)cc(OC)c1OC`, 3.5 to 4.5 µg/mL (≈ 9.25 to 11.9 µM).
Compound `COc1cc(Nc2ncnc(-n3cc(C)c4ccccc43)n2)cc(OC)c1OC` displayed a concentration for half-maximal inhibition (IC50) of more than 4.5 µg/mL.
For the compound `CN(c1cccc(Cl)c1)c1ncnc(Nc2cccc(CC(=O)O)c2)n1`, the IC50 is less than 0.4 µg/mL.
`COc1cc(Nc2ncnc(-c3ccc(NCc4ccccc4)nc3)n2)cc(OC)c1OC` displayed an IC50 of more than 4.5 µg/mL.
`COC(=O)c1ccc(-c2cc(Nc3ncnc(Nc4ccc(N5CCOCC5)cc4)n3)[nH]n2)cc1` registered an IC50 of 3.5 to 4.5 µg/mL (≈ 7.41 to 9.52 µM).
Consider `COc1cc(Nc2ncnc(Nc3ccc4nn(C)cc4c3)n2)cc(OC)c1OC`, for which the half-inhibitory concentration (IC50) is 0.4 to 2.4 µg/mL (≈ 0.982 to 5.89 µM).
`COc1cc(Nc2ncnc(Nc3nc4ccc(F)cc4s3)n2)cc(OC)c1OC` had an IC50 of more than 4.5 µg/mL.
Take `Clc1cc(Cl)cc(Nc2ncnc(-n3cccc3)n2)c1`: the IC50 was more than 4.5 µg/mL.
In turn, `COC(=O)c1cc(Nc2ncnc(Nc3cc(-c4ccco4)n[nH]3)n2)cc(C(=O)OC)c1` gave an IC50 of more than 4.5 µg/mL.
As to `COc1ccc(CNc2ncnc(Nc3ccc4c(cnn4Cc4ccccc4)c3)n2)cc1OC`, the IC50 lay in the range of 3.5 to 4.5 µg/mL (≈ 7.49 to 9.62 µM).
Turning to `CN(c1cccc(Cl)c1)c1ncnc(Nc2ccc(F)c(C(F)(F)F)c2)n1`, the IC50 was in the range of 0.4 to 2.4 µg/mL (≈ 1.01 to 6.03 µM).
On to `COc1ccc(Nc2ncnc(N(C)c3ccc(Cl)cc3)n2)cc1OC`, for which the IC50 was less than 0.4 µg/mL.
As to `CCC(O)CNc1ncnc(Nc2ccc(OC)c(OC)c2)n1` (configuration not stated), the IC50 was more than 4.5 µg/mL.
For `NC(=O)c1cccc(Nc2ncnc(-n3c(=O)[nH]c4ccccc43)n2)c1` the value was more than 4.5 µg/mL; for `CC(C)(C)OC(=O)NCc1ccc(Nc2ncnc(Nc3cc(-c4ccco4)n[nH]3)n2)cc1`, 0.4 to 2.4 µg/mL (≈ 0.892 to 5.35 µM); for `COc1cc(Nc2ncnc(-n3c(NC(CO)c4ccccc4)nc4ccccc43)n2)cc(OC)c1OC` (configuration not stated), more than 4.5 µg/mL.
Compound `Clc1cccc(Nc2ncnc(-n3cccc3)n2)c1` had a 50% inhibitory concentration (IC50) of more than 4.5 µg/mL.
Take `CN(c1cccc(Cl)c1)c1ncnc(NCCN2CCCCC2)n1`: the IC50 lay in the range of 2.4 to 3.5 µg/mL (≈ 6.92 to 10.1 µM).
